Values of other authors as cited in patent US20200188436A1, “Compositions and Methods for Cancer Immunotherapy” (The UAB Research Foundation, priority 2016, published 2020).

Experiments:
[1] = system: diffuse large B-cell lymphoma (DLBCL); details: phase II, DLBCL after autologous stem cell transplantation; preliminary results
recurrent multifocal GBM = details: two pediatric patients, refractory to standard therapies, single agent

| Substance | subjects alive [1] [%] | subjects progression-free at the end of the follow-up period [1] [%] | clinical response (recurrent multifocal GBM) |
| --- | --- | --- | --- |
| CT-011: humanized IgG1 monoclonal antibody against PD-1 | 82 | 70 | – |
| nivolumab: immune checkpoint inhibitor, anti-PD1 antibody | – | – | remarkable and durable responses |
